This assay concerns the target T1, rσNS (Reovirus type 3, UniProt P03526).
T1 construct: made in house; host or cells: E. coli RR1 (pRK248cIts) carrying pRC23-S3
Kind of assay: Inhibition of binding of reovirus ssRNA to rσNS by ribonucleotides. As to conditions: for remaining activity at 10000 µM: ribonucleotide 10 mM. Here is the method: In a preliminary experiment it was noticed that the capacity of rσNS to bind (ss) RNAs was abolished if all four ribonucleotides were included in the reaction mixture. The ability of each of the four ribonucleotides (ATP, CTP, GTP, and UTP) to inhibit binding was then examined. […] With the amount of rσNS used in these experiments (130 ng per reaction) GTP inhibition was evident between 0.5 mM and 1 mM (Table 3). The other three ribonucleotides caused little interference with binding even at concentrations of 10 mM (Table 3). This was an important observation for developing σNS as a concentrator of (ss) RNA in test samples to be used in hybridization probe assays. […] The isolated (ss) RNA can then be treated with the hybridization probe in a conventional manner. Obviously since the binding of the σNS protein with the (ss) RNA is non-specific, the specificity of the assay is fully determined by the specificity of the hybridization probe for the desired RNA being assayed.

Where [1] appears, read: read-out: % of [32P]-labeled reovirus ssRNA retained on nitrocellulose membrane, expressed as percentage of control, EXP. 1, ribonucleotide 2 mM (mixture 2 mM each), 130 ng rσNS per reaction.
Where [2] appears, read: read-out: % of [32P]-labeled reovirus ssRNA retained on nitrocellulose membrane, expressed as percentage of control, EXP. 2.

Like-named read-outs stand apart in the source and are kept apart here.

T1 sequence (P03526 whole entry): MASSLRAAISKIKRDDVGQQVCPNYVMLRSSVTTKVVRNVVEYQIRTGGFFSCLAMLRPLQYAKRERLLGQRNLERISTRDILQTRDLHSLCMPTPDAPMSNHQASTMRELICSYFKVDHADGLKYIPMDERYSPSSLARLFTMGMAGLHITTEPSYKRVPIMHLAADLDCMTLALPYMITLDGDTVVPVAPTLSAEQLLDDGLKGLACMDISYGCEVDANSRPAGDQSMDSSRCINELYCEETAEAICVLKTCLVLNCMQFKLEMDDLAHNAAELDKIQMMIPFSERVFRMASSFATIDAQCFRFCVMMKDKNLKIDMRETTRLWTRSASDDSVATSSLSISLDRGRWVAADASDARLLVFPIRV

`Nc1ncnc2c1ncn2[C@@H]1O[C@H](COP(=O)(O)OP(=O)(O)OP(=O)(O)O)[C@@H](O)[C@H]1O` [ATP]: the remaining activity at 2000 µM under setting [1] worked out at 61%. Moreover, the remaining activity at 10000 µM under setting [2] came out at 95%.
For `Nc1ccn([C@@H]2O[C@H](COP(=O)(O)OP(=O)(O)OP(=O)(O)O)[C@@H](O)[C@H]2O)c(=O)n1` [CTP], in that order: 58% and 81%.
`Nc1nc2c(ncn2[C@@H]2O[C@H](COP(=O)(O)OP(=O)(O)OP(=O)(O)O)[C@@H](O)[C@H]2O)c(=O)[nH]1` [GTP]: the remaining activity at 2000 µM came to 5% under setting [1] and 15% (read-out: % of [32P]-labeled reovirus ssRNA retained on nitrocellulose membrane, expressed as percentage of control, EXP. 2, ribonucleotide 2 mM). Moreover, the remaining activity at 100 µM (read-out: % of [32P]-labeled reovirus ssRNA retained on nitrocellulose membrane, expressed as percentage of control, EXP. 2, ribonucleotide 0.1 mM) worked out at 93%. Further, for the setting “read-out: % of [32P]-labeled reovirus ssRNA retained on nitrocellulose membrane, expressed as percentage of control, EXP. 2, ribonucleotide 0.5 mM”, the remaining activity at 500 µM was 95%. The remaining activity at 1000 µM (read-out: % of [32P]-labeled reovirus ssRNA retained on nitrocellulose membrane, expressed as percentage of control, EXP. 2, ribonucleotide 1 mM) is 29%. The remaining activity at 10000 µM under setting [2] is 0%.
Consider `O=c1ccn([C@@H]2O[C@H](COP(=O)(O)OP(=O)(O)OP(=O)(O)O)[C@@H](O)[C@H]2O)c(=O)[nH]1` [UTP], for which, under setting [1], the remaining activity at 2000 µM was 59%. The remaining activity at 10000 µM under setting [2] came out at 68%.

Values taken from patent US4764460A, “Recombinant sigma NS protein” (priority 1985, dated 1988).
